Experimental data as given in publication PMC5390312, “Genetic visualization of protein interactions harnessing liquid phase transitions” (Scientific Reports, 2017).

Molecular target: T1, X-linked inhibitor of apoptosis protein (XIAP) (Homo sapiens, UniProt P98170)
T1 construct: BIR3 domain (XIAP-AG fusion); with Smac N-terminal region (SmacNT-PB1), displaced
Experiment: Fluoppi high-content assay in HEK293 cells, Smac/XIAP dissociation
Type: cell-based

T1 sequence (P98170 241-356 limits assumed): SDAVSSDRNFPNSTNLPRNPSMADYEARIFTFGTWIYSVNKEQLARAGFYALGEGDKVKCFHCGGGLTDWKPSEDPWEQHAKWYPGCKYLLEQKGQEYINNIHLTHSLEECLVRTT
T1 sequence (Q9NR28 56-239 partner): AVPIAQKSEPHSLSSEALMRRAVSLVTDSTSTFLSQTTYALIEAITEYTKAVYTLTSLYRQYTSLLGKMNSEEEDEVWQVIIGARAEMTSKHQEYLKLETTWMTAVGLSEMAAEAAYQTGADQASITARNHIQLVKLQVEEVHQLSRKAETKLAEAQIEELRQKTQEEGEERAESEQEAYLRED

SMILES: CN[C@@H](C)C(=O)N[C@H]1CN(C(=O)CC(C)C)CC[C@H]2CC[C@@H](C(=O)NC(c3ccccc3)c3ccccc3)N2C1=O [AT-406]
- IC50: 9.2 ± 1.2 µM
